# Reference: patent publication US20260125335A1, “SYNTHETIC C[…], PHARMACEUTICAL COMPOSITIONS, AND METHODS OF TREATING BACTERIAL INFECTIONS AND OTHER DISORDERS” (priority 2023, published 2026)
# Like-named read-outs stand apart in the source and are kept apart here.
# Assays:
# Type in all cases: cell-based
# [1] = system: Proteus mirabilis; experiment: Broth microdilution MIC assay, Proteus mirabilis; settings: type —
# Description: (§1) This example illustrates evaluating in vitro activity of (Z)-2-(3,6-dimethylhepta-2,5-dien-1-yl)-5-pentylbenzene-1,3-diol (Example 1, “M194”) against gram-positive and gram-negative bacteria. In this study, in vitro activity was determined against a diverse panel of Gram-positive and Gram-negative bacteria associated with a variety of infections. Broth microdilution MIC assays were conducted following guidelines recommended by the Clinical and Laboratory Standards Institute (CLSI; 1-3).
# (§2) The compound M194 was provided in powder form and initially stored at room temperature prior to testing. A stock solution of M194 in DMSO/DMSO solvent/diluent was made at 101× the final testing concentration and tested over ranges of 0.06-64 μg/mL.
# (§3) Test organisms consisted of isolates from the American Type Culture Collection (ATCC; Manassas, VA) and the Micromyx Repository (MMX; Kalamazoo, MI). Upon initial receipt at Microbiologics, the organisms were sub-cultured onto an appropriate agar medium and incubated under atmospheric conditions required for growth. Following incubation for 18 to 24 hr at 35° C. in the appropriate atmosphere, colonies were harvested from these plates and cell suspensions were prepared and frozen at −80° C. with a cryoprotectant. Prior to testing, isolates were streaked from frozen vials onto the appropriate agar. […]
# [2] = system: Staphylococcus saprophyticus; experiment: Broth microdilution MIC assay, Staphylococcus saprophyticus; settings: type MSS
# Description: as §1, §2, §3
# [3] = system: Streptococcus pyogenes; experiment: Broth microdilution MIC assay, Streptococcus pyogenes
# Description: as §1, §2, §3
# [4] = system: Enterococcus faecium; experiment: Broth microdilution MIC assay, Enterococcus faecium
# Description: as §1, §2, §3
# [5] = system: Klebsiella pneumoniae; experiment: Broth microdilution MIC assay, Klebsiella pneumoniae
# Description: as §1, §2, §3
# [6] = system: Streptococcus oralis; experiment: Broth microdilution MIC assay, Streptococcus oralis; settings: type ERYR
# Description: as §1, §2, §3
# [7] = system: Serratia marcescens; experiment: Broth microdilution MIC assay, Serratia marcescens; settings: type —
# Description: as §1, §2, §3
# [8] = system: Listeria monocytogenes; experiment: Broth microdilution MIC assay, Listeria monocytogenes; settings: type —
# Description: as §1, §2, §3
# [9] = system: Enterobacter cloacae; experiment: Broth microdilution MIC assay, Enterobacter cloacae; settings: type —
# Description: as §1, §2, §3
# [10] = system: Escherichia coli; experiment: Broth microdilution MIC assay, Escherichia coli
# Description: as §1, §2
# (§4) Test organisms consisted of isolates from the American Type Culture Collection (ATCC; Manassas, VA) and the Micromyx Repository (MMX; Kalamazoo, MI). Upon initial receipt at Microbiologics, the organisms were sub-cultured onto an appropriate agar medium and incubated under atmospheric conditions required for growth. Following incubation for 18 to 24 hr at 35° C. in the appropriate atmosphere, colonies were harvested from these plates and cell suspensions were prepared and frozen at −80° C. with a cryoprotectant. Prior to testing, isolates were streaked from frozen vials onto the appropriate agar. Unless otherwise noted, Trypticase Soy Agar with 5% sheep blood (Remel; Lenexa, KS; Lot No. 693244) was used and inoculated plates were incubated at 35° C. overnight in ambient atmosphere. Haemophilus influenzae isolates were streaked onto Chocolate agar (Becton Dickinson [BD]; Sparks, MD; Lot No. 3157581). Streptococcus spp., Moraxella spp., and H. influenzae inoculated plates were incubated at 35° C. overnight in 5% CO2.
# (§5) Organisms were tested in the appropriate media according to CLSI guidelines (1-3). […]
# [11] = system: Enterobacterales; experiment: Broth microdilution MIC assay, Enterobacterales; settings: any of the Enterobacterales
# Description: as §1, §2, §3
# [12] = system: Streptococcus mutans; experiment: Broth microdilution MIC assay, Streptococcus mutans; settings: type —
# Description: as §1, §2, §3
# [13] = system: Staphylococcus epidermidis; experiment: Broth microdilution MIC assay, Staphylococcus epidermidis
# Description: as §1, §2, §3
# [14] = system: Neisseria gonorrhoeae; experiment: Broth microdilution MIC assay, Neisseria gonorrhoeae
# Description: as §1, §2, §3
# [15] = system: Moraxella catarrhalis; experiment: Broth microdilution MIC assay, Moraxella catarrhalis
# Description: as §1, §2, §3
# [16] = system: Enterococcus faecalis; experiment: Broth microdilution MIC assay, Enterococcus faecalis
# Description: as §1, §2, §4
# (§6) Organisms were tested in the appropriate media according to CLSI guidelines (1-3). Cation-Adjusted Mueller Hinton broth (CAMHB) was made by supplementing Mueller Hinton Broth (MHB; BD; Lot No. 1285575) to a final concentration of 20 mg/L Ca++ (Sigma; St. Louis, MO; Lot. No. 084K0215) and 12.5 mg/L Mg++ (VWR; Radnor, PA; Lot. No. 22C0856290). CAMHB was used for broth microdilution testing except for isolates requiring specialized media as described below.
# (§7) The MIC assay method followed the procedures described by CLSI and employed automated liquid handlers to conduct serial dilutions and liquid transfers. Automated liquid handlers included the Multidrop Combi (ThermoScientific), Biomek 3000, and Biomek FX (Beckman Coulter; Fullerton, CA).
# (§8) The wells in columns 2 through 12 in standard 96-well microdilution plates (Costar 3795) were filled with 150 μl of the appropriate diluent. These would become the “mother plates” from which “daughter,” or test plates, would be prepared. […]
# [17] = system: Haemophilus influenzae; experiment: Broth microdilution MIC assay, Haemophilus influenzae; settings: for MIC: Haemophilus influenzae
# Description: as §1, §2, §4, §5
# [18] = system: Streptococcus agalactiae; experiment: Broth microdilution MIC assay, Streptococcus agalactiae
# Description: as §1, §2, §3
# [19] = system: Streptococcus constellatus; experiment: Broth microdilution MIC assay, Streptococcus constellatus; settings: type —
# Description: as §1, §2, §3
# [20] = system: Staphylococcus spp. and Enterococcus spp.; experiment: Broth microdilution MIC assay, Staphylococcus spp. and Enterococcus spp.; settings: all Staphylococcus spp.
# Description: as §1, §2, §3
# [21] = system: Acinetobacter baumannii; experiment: Broth microdilution MIC assay, Acinetobacter baumannii
# Description: as §1, §2, §4, §5
# [22] = system: Streptococcus spp. and L. monocytogenes; experiment: Broth microdilution MIC assay, Streptococcus spp. and L. monocytogenes; settings: all Streptococcus spp., compared with Staphylococcus spp. and Enterococcus spp.
# Description: as §1, §2, §3
# [23] = system: Staphylococcus aureus; experiment: Broth microdilution MIC assay, Staphylococcus aureus
# Description: as §1, §2, §4, §6, §7, §8
# [24] = system: Pseudomonas aeruginosa; experiment: Broth microdilution MIC assay, Pseudomonas aeruginosa; settings: for MIC: Pseudomonas aeruginosa
# Description: as §1, §2, §4, §5
# [25] = system: Citrobacter freundii; experiment: Broth microdilution MIC assay, Citrobacter freundii; settings: type —
# Description: as §1, §2, §3
compound,measurement,setting,value
"CCCCCc1cc(O)c(C/C=C(/C)CC=C(C)C)c(O)c1 [Example M194, (Z)-2-(3,6-dimethylhepta-2,5-dien-1-yl)-5-pentylbenzene-1,3-diol]",MIC,[1],> 64 µg/mL
same,MIC,[2],2 µg/mL
same,MIC,[3]; type ERYR,16 µg/mL
same,MIC,"[3]; type —, read-out: MIC",16 µg/mL
same,MIC,[4]; type vanA,1 µg/mL
same,MIC,"[4]; type —, read-out: MIC",1 µg/mL
same,MIC,"[5]; type QC, read-out: MIC",> 64 µg/mL
same,MIC,[5]; type —,>64 µg/mL
same,MIC,[6],32 µg/mL
same,MIC,[7],> 64 µg/mL
same,MIC,[8],32 µg/mL
same,MIC,[9],> 64 µg/mL
same,MIC,[10]; type ESBL,>64 µg/mL
same,MIC,[10]; type NDM-1,>64 µg/mL
same,MIC,"[10]; type QC, read-out: MIC",> 64 µg/mL
same,in vitro activity (in words),[11],not active
same,MIC,[12],32 µg/mL
same,MIC,[13]; type MRSE,1 µg/mL
same,MIC,[13]; type MSSE,1 µg/mL
same,in vitro activity (in words),[14]; N. gonorrhoeae,had activity
same,MIC,"[14]; Neisseria gonorrhoeae, type QC",1 µg/mL
same,in vitro activity (in words),[15],had activity
same,MIC,[15]; type BL+,2 µg/mL
same,MIC,"[16]; type VSE, QC, read-out: MIC",2 µg/mL
same,MIC,"[16]; type VSE, read-out: MIC",1 µg/mL
same,MIC,[16]; type vanA,1 µg/mL
same,MIC,[16]; type vanB,1 µg/mL
same,MIC,"[17]; ATCC49247, type QC (ATCC 49247 isolate)",4 µg/mL
same,in vitro activity (in words),[17]; H. influenzae,had activity
same,MIC,[17]; type BL+ (beta-lactamase positive isolate MMX 7988),32 µg/mL
same,MIC,[18]; type MLS,16 µg/mL
same,MIC,"[18]; type —, read-out: MIC",16 µg/mL
same,MIC,[19],16 µg/mL
same,in vitro activity (in words),[20],had activity
same,in vitro activity (in words),[21],not active
same,MIC,[21]; type MDR,>64 µg/mL
same,MIC,"[21]; type —, read-out: MIC",> 64 µg/mL
same,in vitro activity (in words),[22],to a lesser degree
same,MIC,"[23]; MRSA, type MRSA, read-out: MIC",1 µg/mL
same,MIC,"[23]; MSSA, type MSSA, QC, read-out: MIC",2 µg/mL
same,MIC,"[23]; MSSA, type MSSA, read-out: MIC",1 µg/mL
same,MIC,"[23]; VISA, type VISA",2 µg/mL
same,in vitro activity (in words),[24]; P. aeruginosa,not active
same,MIC,"[24]; type MDR, VIM",>64 µg/mL
same,MIC,"[24]; type QC, read-out: MIC",> 64 µg/mL
same,MIC,[25],> 64 µg/mL
